Like-named read-outs stand apart in the source and are kept apart here. Each block holds one compound with its values, some of them ahead of it.
What was measured:
[1] = Test Example 1 (flowability and floodability), Carr index table; assay type: physicochemical
Description: Test Example 1 (flowability and floodability): the compressibility was calculated by measuring bulk density and tap density of the crystals in Examples 1 and 2, and moreover, their dynamic bulk density, angle of repose, angle of spatula, uniformity, cohesion, angle of fall, angle of difference, and degree of dispersion were found, and flowability and floodability were evaluated using the Carr index table. (Table 1).

[2] = Test Example 2 (absorption properties at time of oral administration to rat); assay type: in vivo; settings: single oral, mean ± SD (n = 4); for concentration at 1 hr: read-out: Unchanged compound level in blood plasma 1 hr; for concentration at 2 hr: read-out: Unchanged compound level in blood plasma 2 hr; for concentration at 4 hr: read-out: Unchanged compound level in blood plasma 4 hr; for concentration at 8 hr: read-out: Unchanged compound level in blood plasma 8 hr; for concentration at 24 hr: read-out: Unchanged compound level in blood plasma 24 hr; for AUC(0-t): read-out: AUC0-24 hr
Description: A test substance suspended in a 0.5% solution of methylcellulose was orally administered to a male CD (SD) rat (CHARLES RIVER LABORATORIES JAPAN, INC., 7 weeks old when used) in a dose of 30 and 300 mg/kg, and blood was then collected after 0.25, 0.5, 1, 2, 4, 8, and 24 hours. The level of unchanged compound in blood plasma was measured by HPLC (Table 2, Table 3), and pharmacokinetic parameters were calculated and absorption was evaluated (Table 4).

[3] = male, CD (SD), plasma, po, 30 mg/kg, 30 mg/kg
[4] = male, CD (SD), plasma, po, 300 mg/kg, 300 mg/kg

- Floodability index ([1]; after pulverization): 43
- Flowability index ([1]; after pulverization): 36
- concentration at 1 hr [2, 3]: 49.8 ± 22.7 µg/mL
- concentration at 2 hr [2, 3]: 33 ± 11 µg/mL
- concentration at 4 hr [2, 3]: 26.6 ± 13 µg/mL
- concentration at 8 hr [2, 3]: 20.4 ± 5.53 µg/mL
- concentration at 24 hr [2, 3]: 1.16 ± 0.45 µg/mL
- AUC(0-t) [2, 3]: 412 ± 123 µg·h/mL
- Cmax ([2]; male, CD (SD), plasma, po, 30 mg/kg, 30 mg/kg, read-out: Cmax): 59.2 ± 29.5 µg/mL
- Unchanged compound level in blood plasma 0.25 hr ([2]; 30 mg/kg): 38.18 ± 23.24 µg/mL
- Unchanged compound level in blood plasma 0.5 hr ([2]; 30 mg/kg): 58.51 ± 30.81 µg/mL
- Tmax ([2]; 30 mg/kg): 0.63 ± 0.25 h
- Unchanged compound level in blood plasma 0.25 hr ([2]; 300 mg/kg): 174.78 ± 19.03 µg/mL
- Unchanged compound level in blood plasma 0.5 hr ([2]; 300 mg/kg): 275.88 ± 42.51 µg/mL
- Unchanged compound level in blood plasma 1 hr ([2]; 300 mg/kg): 275.53 ± 30.24 µg/mL
- Unchanged compound level in blood plasma 2 hr ([2]; 300 mg/kg): 298.88 ± 35.19 µg/mL
- Unchanged compound level in blood plasma 4 hr ([2]; 300 mg/kg): 285.55 ± 26.38 µg/mL
- Unchanged compound level in blood plasma 8 hr ([2]; 300 mg/kg): 267.85 ± 25.73 µg/mL
- Unchanged compound level in blood plasma 24 hr ([2]; 300 mg/kg): 73.31 ± 27.54 µg/mL
- AUC0-24 hr ([2]; 300 mg/kg): 4923.74 ± 547.44 µg·h/mL
- Cmax ([2]; 300 mg/kg): 307.28 ± 26.20 µg/mL
- Tmax ([2]; 300 mg/kg): 4.00 ± 2.83 h
SMILES: O=C(c1cc(Cl)c(O)c(Cl)c1)N1CS(=O)(=O)c2ccccc21 [Example 1, 3-(3,5-dichloro-4-hydroxybenzoyl)-1,1-dioxo-2,3-dihydro-1,3-benzothiazole]

- Floodability index ([1]; after pulverization): 49.5
- Flowability index ([1]; after pulverization): 42
- Floodability index ([1]; before pulverization): 57.5
- Flowability index ([1]; before pulverization): 65
- concentration at 1 hr [2, 4]: 140 ± 20.3 µg/mL
- concentration at 2 hr [2, 4]: 264 ± 42.2 µg/mL
- concentration at 4 hr [2, 4]: 314 ± 11.2 µg/mL
- concentration at 8 hr [2, 4]: 267 ± 38.4 µg/mL
- concentration at 24 hr [2, 4]: 47.2 ± 19.9 µg/mL
- AUC(0-t) [2, 4]: 4530 ± 269 µg·h/mL
- Cmax ([2]; male, CD (SD), plasma, po, 300 mg/kg, 300 mg/kg, read-out: Cmax): 316 ± 11.4 µg/mL
- Tmax ([2]; male, CD (SD), plasma, po, 300 mg/kg, 300 mg/kg, read-out: Tmax): 3.5 ± 1 h
- Unchanged compound level in blood plasma 0.25 hr ([2]; 30 mg/kg): 12.45 ± 3.94 µg/mL
- Unchanged compound level in blood plasma 0.5 hr ([2]; 30 mg/kg): 27.41 ± 4.71 µg/mL
- Unchanged compound level in blood plasma 1 hr ([2]; 30 mg/kg): 37.38 ± 2.85 µg/mL
- Unchanged compound level in blood plasma 2 hr ([2]; 30 mg/kg): 38.54 ± 0.91 µg/mL
- Unchanged compound level in blood plasma 4 hr ([2]; 30 mg/kg): 23.23 ± 3.08 µg/mL
- Unchanged compound level in blood plasma 8 hr ([2]; 30 mg/kg): 19.23 ± 2.51 µg/mL
- Unchanged compound level in blood plasma 24 hr ([2]; 30 mg/kg): 1.35 ± 0.73 µg/mL
- AUC0-24 hr ([2]; 30 mg/kg): 371.97 ± 34.08 µg·h/mL
- Cmax ([2]; 30 mg/kg): 39.03 ± 0.43 µg/mL
- Tmax ([2]; 30 mg/kg): 1.50 ± 0.58 h
- Unchanged compound level in blood plasma 0.25 hr ([2]; 300 mg/kg): 39.18 ± 4.61 µg/mL
- Unchanged compound level in blood plasma 0.5 hr ([2]; 300 mg/kg): 79.93 ± 13.24 µg/mL
SMILES: O=C(c1cc(Cl)c(O)c(Cl)c1)N1CS(=O)(=O)c2ccccc21 [Example 2, 3-(3,5-dichloro-4-hydroxybenzoyl)-1,1-dioxo-2,3-dihydro-1,3-benzothiazole]
